{
  "source": "patent US11739122B2",
  "about": "“Glycopeptide antibiotic compounds, methods for producing the same, and uses thereof” (Academia Sinica, priority 2019, dated 2023)",
  "key": {"[1]": {"test_system": "VRE ATCC 700221 (vanA)", "assay": "MIC, broth microdilution", "format": "cell-based, enterococci", "settings": "VRE ATCC 700221 (vanA)", "summary_of_the_method": "(§1)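 No visible growth defines the MIC. Plates are incubated 18-24 h at 37° C using a broth inoculum set near 1×10^8 CFU mL^−1.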"}, "[2]": {"test_system": "VRE ATCC 700425 (vanC)", "assay": "MIC, broth microdilution", "format": "cell-based, enterococci", "settings": "VRE ATCC 700425 (vanC)", "summary_of_the_method": "as §1"}, "[3]": {"test_system": "VRE ATCC 700802 (vanB)", "assay": "MIC, broth microdilution", "format": "cell-based, enterococci", "settings": "VRE ATCC 700802 (vanB)", "summary_of_the_method": "as §1"}, "[4]": {"test_system": "A. baumannii ATCC 19606", "assay": "MIC, broth microdilution", "format": "cell-based, Acinetobacter baumannii", "summary_of_the_method": "as §1"}, "[5]": {"test_system": "AB ATCC 19606", "assay": "Minimal bactericidal concentration (MBC)", "format": "cell-based, Acinetobacter baumannii", "protocol": "Minimal Bactericidal Concentration (MBC) Determination\nThe MBC test is an extension of the MIC examination. MBC was determined by performing subcultures on antibiotic-free agar from both the well where there was no visible growth at the MIC of a tested antibiotic and from the positive control well (with inoculum but without compounds). The plates were incubated at 37° C. for 18-24 hours. The MBC was taken as the lowest concentration of the test compound that results in more than 99.9% reduction of viable bacteria. If MBC was one or two dilutions above a given MIC value (MBC/MIC ratio was less than or equal to four), the antibiotic was considered bactericidal against the test organism."}, "[6]": {"test_system": "MRSA ATCC 700787", "assay": "Thin-section TEM, cell wall morphology", "format": "cell-based, Staphylococcus aureus", "protocol": "Thin-Section Transmission Electron Microscopy (TEM)\nAn overnight cultured MRSA ATCC 700787, VRE ATCC 700221 or A. baumannii ATCC 19606 was individually sub-cultured into a fresh medium. Bacteria at the exponential phase were treated with a given test compound at a concentration of 4×MIC for 1-4 hour at 37° C. and followed by wash and resuspension in PBS. Bacteria cells for the TEM analysis were prepared as follows: Cells were fixed with 2.5% glutaraldehyde for 30 minutes. After the fixation, cells were washed twice with PBS and fixed with 1% osmium tetraoxide for another 30 minutes. All the buffer was removed with distilled water. The cells were then stained with 1% uranyl acetate and dehydrated with a graded ethanol solution. Cells were embedded in resin. Finally, each sample was cut into thin slices of approximately 90 nm with a glass knife and stained with uranyl acetate. The images of bacterial morphological were recorded.\nThe cell wall/membrane apparently is the targets, while the extent of damage depends on what compound imposes on the strain. […] Cell wall thickening has been a common phenotype in clinical MRSA isolates, which may well be a phenotypic determinant for VRSA. The systemic cell-wall damage may account for the cell-wall biosynthesis crippled all over the cell surface in cell-wall thickening strains, thus leading cells to lysis as a result of the osmotic pressure of cytoplasm."}, "[7]": {"test_system": "HEK293T cells", "assay": "Alamar Blue cell viability assay", "format": "cell-based, human", "settings": "up to 100 μgmL^−1; 2 and 24 h", "protocol": "The Alamar Blue (AB) assay, which includes a redox indicator that changes color or emits fluorescence in response to a metabolic activity, was used to assess in vitro mammalian cell cytotoxicity (human embryonic kidney cells (HEK293T)) upon an antibiotic treatment. 2×10^5 cellsmL^−1 were allowed to adhere on 96-well plates overnight at 37° C. in a humidified incubator (5% CO2 atmosphere). Tested compounds were dissolved in 50% DMSO to make 1 mgmL^−1 of a stock solution. Cells were separately aliquoted with 5 μL of a test compound (final concentration: 100 μgmL^−1) and incubated. PBS and 50% DMSO, which was used to dissolve compounds, served as a control. Cell viability was triplicated and assessed at 2 and 24 hour time points for each test compound, on which the measurements followed the manufacturer protocol."}, "[8]": {"test_system": "A. baumannii ATCC 19606", "assay": "Inner membrane permeabilization, propidium iodide (PI)", "format": "cell-based, Acinetobacter baumannii", "settings": "AB", "protocol": "Membrane Permeabilization Assay\nThe inner membrane and outer membrane permeabilization was determined by propidium iodide (PI) and 1-N-Phenylnaphthylamine (NPN), respectively. MRSA (ATCC 700787) and A. baumannii (ATCC 19606) at mid-log phase were harvested, washed and resuspended in a solution containing 5 mM glucose and 5 mM HEPES at pH 7.2. For the inner membrane permeabilization, 150 μL cell suspension and 50 μL PI (10 μM) were added together and preincubated for 30 minutes or 60 minutes for MRSA or A. baumannii, respectively. For outer membrane permeabilization activity, 150 μL cell suspension and 50 μL NPN (10 μM) were added together and preincubated for 60 minutes. The change of fluorescence intensity was recorded for 8 minutes at 2 minute intervals with excitation and emission wavelength set at 535 nm and 617 nm, respectively for PI and with excitation and emission wavelength set at 350 nm of 420 nm, respectively, for NPN. When 5 μL of a given test compound was added in the solution, the fluorescence intensity was recorded for another 12 minutes."}},
  "data": [
    {"smiles": "CCCCCCCC(=O)N[C@H]1[C@H](O[C@@H]2c3ccc(c(Cl)c3)Oc3cc4cc(c3O)Oc3ccc(cc3Cl)C[C@H]3NC(=O)[C@H](N)c5ccc(O)c(c5)Oc5cc(O)cc(c5)[C@H](NC3=O)C(=O)N[C@H]4C(=O)N[C@H]3C(=O)N[C@@H]2C(=O)N[C@H](C(=O)O)c2cc(O)cc(O)c2-c2cc3ccc2O)O[C@H](CO)[C@@H](O)[C@@H]1O", "note": "[Compound 14, r6,N-octyl-Glc Tei]", "values": [
      {"measurement": "MIC", "setting": "[1]", "result": ">16", "unit": "µg/mL"},
      {"measurement": "MIC", "setting": "[2]", "result": 1, "unit": "µg/mL"},
      {"measurement": "MIC", "setting": "[3]", "result": 0.5, "unit": "µg/mL"},
      {"measurement": "MIC", "setting": "[4]; A. baumannii ATCC 19606, Table 3, first figure of cell", "result": 50, "unit": "µM"},
      {"measurement": "MIC", "setting": "[4]; A. baumannii ATCC 19606, Table 3, second figure of cell", "result": 74.22, "unit": "µg/mL"},
      {"measurement": "MIC", "setting": "[4]; AB ATCC 19606, Table 4", "result": 74.22, "unit": "µg/mL"},
      {"measurement": "MBC", "setting": "[5]", "result": 74.22, "unit": "µg/mL"},
      {"measurement": "MBC/MIC", "setting": "[5]", "result": 1},
      {"measurement": "cell wall morphology by TEM", "setting": "[6]", "result": "cell wall damage toward full cell lysis"},
      {"measurement": "cytotoxicity to HEK293T cells", "setting": "[7]", "result": "did not exhibit any observable toxicity"},
      {"measurement": "inner (cytoplasmic) membrane permeabilization, PI", "setting": "[8]", "result": "no activity"}
    ]}
  ]
}
